Measurements reported in PubChem BioAssay AID1919009 (Molecular Pharmacology Branch, DTP, NCI, 2023).
pIC50: −log10 of the molar value. “And” between values parts separate entries of the source, which are not always exact repeats. Equal entries are not always repeated.

System: K24384-001-R-PDC complex spheroid growth
Assay: Anticancer human tumor K24384-001-R-PDC patient-derived pancreatic adenocarcinoma cell line growth inhibition [AhR]
Settings: for viability, T/C: stronger effect = lower value
Method in brief: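 Agents were dosed in half-log steps down from roughly clinical Cmax, or from 10 microM where Cmax was unknown, alone and with AhR antagonists. Read-out: percent test/control growth of tumor spheroids containing HUVEC and MSC stromal cells.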

[1] = curve of first compound, second compound 0.1 µM
[2] = curve of first compound, second compound 0.316 µM
[3] = curve of first compound, second compound 1 µM
[4] = curve of first compound, second compound 3.16 µM
[5] = curve of first compound, second compound 10 µM
[6] = second compound 0.1 µM, first compound 0.00949 µM
[7] = second compound 0.1 µM, first compound 0.03 µM
[8] = second compound 0.1 µM, first compound 0.0949 µM
[9] = second compound 0.1 µM, first compound 0.3 µM
[10] = second compound 0.316 µM, first compound 0.00949 µM
[11] = second compound 0.316 µM, first compound 0.03 µM
[12] = second compound 0.316 µM, first compound 0.0949 µM
[13] = second compound 0.316 µM, first compound 0.3 µM
[14] = second compound 1 µM, first compound 0.00949 µM
[15] = second compound 1 µM, first compound 0.03 µM
[16] = second compound 1 µM, first compound 0.0949 µM
[17] = second compound 1 µM, first compound 0.3 µM
[18] = second compound 3.16 µM, first compound 0.00949 µM
[19] = second compound 3.16 µM, first compound 0.03 µM
[20] = second compound 3.16 µM, first compound 0.0949 µM
[21] = second compound 3.16 µM, first compound 0.3 µM
[22] = second compound 10 µM, first compound 0.00949 µM
[23] = second compound 10 µM, first compound 0.03 µM
[24] = second compound 10 µM, first compound 0.0949 µM
[25] = second compound 10 µM, first compound 0.3 µM
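Wherever viability, T/C is given: percent of DMSO vehicle-treated spheroid viability set as 100%.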

## O=C(C=Cn1cnc(-c2cc(C(F)(F)F)cc(C(F)(F)F)c2)n1)NNc1cnccn1 + CC(CO)NC(=O)c1cc(-c2ccc(Cl)cc2)nn(-c2cnn(C)c2)c1=O
[1]
  pIC50: 6.55
[2]
  pIC50: 6.53
[3]
  pIC50: 6.61
[4]
  pIC50: 6.63
[5]
  pIC50: 6.67
[6]
  viability, T/C: 107%
[7]
  viability, T/C: 108%
[8]
  viability, T/C: 80.1%
[9]
  viability, T/C: 48.7%
Second compound 0.1 µM, first compound 0.949 µM
  viability, T/C: 34.1%
Second compound 0.1 µM, first compound 3 µM
  viability, T/C: 28.1%
[10]
  viability, T/C: 102%
[11]
  viability, T/C: 99.3%
[12]
  viability, T/C: 74.8%
[13]
  viability, T/C: 52%
Second compound 0.316 µM, first compound 0.949 µM
  viability, T/C: 30.5%
Second compound 0.316 µM, first compound 3 µM
  viability, T/C: 26.6%
[14]
  viability, T/C: 86.1%
[15]
  viability, T/C: 102%
[16]
  viability, T/C: 72.1%
[17]
  viability, T/C: 46.5%
Second compound 1 µM, first compound 0.949 µM
  viability, T/C: 33.4%
Second compound 1 µM, first compound 3 µM
  viability, T/C: 28.6%
[18]
  viability, T/C: 77.8%
[19]
  viability, T/C: 94.3%
[20]
  viability, T/C: 79.6%
[21]
  viability, T/C: 41.8%
Second compound 3.16 µM, first compound 0.949 µM
  viability, T/C: 29.6%
Second compound 3.16 µM, first compound 3 µM
  viability, T/C: 23.3%
[22]
  viability, T/C: 76.2%
[23]
  viability, T/C: 82.3%
[24]
  viability, T/C: 70.7%
[25]
  viability, T/C: 41%
Second compound 10 µM, first compound 0.949 µM
  viability, T/C: 29.3%
Second compound 10 µM, first compound 3 µM
  viability, T/C: 27.3%

## COc1ccc([C@@H](O)c2cc(-c3ncnc4cc(N5CCOCC5)ccc34)c(F)cc2Cl)nn1 + Cc1ccccc1N=Nc1ccc(NC(=O)c2ccnn2C)c(C)c1
[1]
  pIC50: 5.23
[2]
  pIC50: 5.31
[3]
  pIC50: 5.44
[4]
  pIC50: 5.60
[5]
  pIC50: 5.43
Second compound 0.1 µM, first compound 0.0316 µM
  viability, T/C: 99.7%
Second compound 0.1 µM, first compound 0.1 µM
  viability, T/C: 99%
Second compound 0.1 µM, first compound 0.316 µM
  viability, T/C: 82.2%
Second compound 0.1 µM, first compound 1 µM
  viability, T/C: 66.7%
Second compound 0.1 µM, first compound 3.16 µM
  viability, T/C: 62.5%
Second compound 0.1 µM, first compound 10 µM
  viability, T/C: 42.1%
Second compound 0.316 µM, first compound 0.0316 µM
  viability, T/C: 99.3%
Second compound 0.316 µM, first compound 0.1 µM
  viability, T/C: 90.5%
Second compound 0.316 µM, first compound 0.316 µM
  viability, T/C: 80.4%
Second compound 0.316 µM, first compound 1 µM
  viability, T/C: 82%
Second compound 0.316 µM, first compound 3.16 µM
  viability, T/C: 53.8%
Second compound 0.316 µM, first compound 10 µM
  viability, T/C: 37.2%
Second compound 1 µM, first compound 0.0316 µM
  viability, T/C: 96.1%
Second compound 1 µM, first compound 0.1 µM
  viability, T/C: 95.7%
Second compound 1 µM, first compound 0.316 µM
  viability, T/C: 86.1%
Second compound 1 µM, first compound 1 µM
  viability, T/C: 70.8%
Second compound 1 µM, first compound 3.16 µM
  viability, T/C: 51.9%
Second compound 1 µM, first compound 10 µM
  viability, T/C: 37.8%
Second compound 3.16 µM, first compound 0.0316 µM
  viability, T/C: 99.9%
Second compound 3.16 µM, first compound 0.1 µM
  viability, T/C: 96.6%
Second compound 3.16 µM, first compound 0.316 µM
  viability, T/C: 81%
Second compound 3.16 µM, first compound 1 µM
  viability, T/C: 64.2%
Second compound 3.16 µM, first compound 3.16 µM
  viability, T/C: 47.2%
Second compound 3.16 µM, first compound 10 µM
  viability, T/C: 34.9%
Second compound 10 µM, first compound 0.0316 µM
  viability, T/C: 97%
Second compound 10 µM, first compound 0.1 µM
  viability, T/C: 103%
Second compound 10 µM, first compound 0.316 µM
  viability, T/C: 82.5%
Second compound 10 µM, first compound 1 µM
  viability, T/C: 78.7%
Second compound 10 µM, first compound 3.16 µM
  viability, T/C: 50.9%
Second compound 10 µM, first compound 10 µM
  viability, T/C: 32.7%

## COc1ccc([C@@H](O)c2cc(-c3ncnc4cc(N5CCOCC5)ccc34)c(F)cc2Cl)nn1
Compound 0.0316 µM
  viability, T/C: 107% and 86.3% and 109%
Compound 0.1 µM
  viability, T/C: 101% (2×) and 104%
Compound 0.316 µM
  viability, T/C: 96.8% and 94.6% and 105%
Compound 1 µM
  viability, T/C: 76% and 81.3% and 72.5%
Compound 3.16 µM
  viability, T/C: 63.3% and 73.9% and 71.7%
Compound 10 µM
  viability, T/C: 37.4% and 39.9% and 49.7%
Curve of compound
  pIC50: 5.26 and 5.15 and < 5.00

## CC(C)CC(NC(=O)C(Cc1ccccc1)NC(=O)c1cnccn1)B(O)O (configuration not stated) + Cc1cncc(-c2nc(NCCc3c[nH]c4ccccc34)c3ncn(C(C)C)c3n2)c1
[1]
  pIC50: 8.12
[2]
  pIC50: 7.95
[3]
  pIC50: 7.97
[4]
  pIC50: 8.15
[5]
  pIC50: > 9.02
Second compound 0.1 µM, first compound 0.000949 µM
  viability, T/C: 112%
Second compound 0.1 µM, first compound 0.003 µM
  viability, T/C: 83.3%
[6]
  viability, T/C: 46.1%
[7]
  viability, T/C: 1.55%
[8]
  viability, T/C: 0.43%
[9]
  viability, T/C: 0.56%
Second compound 0.316 µM, first compound 0.000949 µM
  viability, T/C: 107%
Second compound 0.316 µM, first compound 0.003 µM
  viability, T/C: 95%
[10]
  viability, T/C: 58.9%
[11]
  viability, T/C: 1.17%
[12]
  viability, T/C: 0.65%
[13]
  viability, T/C: 0.45%
Second compound 1 µM, first compound 0.000949 µM
  viability, T/C: 116%
Second compound 1 µM, first compound 0.003 µM
  viability, T/C: 106%
[14]
  viability, T/C: 56.6%
[15]
  viability, T/C: 0.7%
[16]
  viability, T/C: 0.26%
[17]
  viability, T/C: 0.31%
Second compound 3.16 µM, first compound 0.000949 µM
  viability, T/C: 83.9%
Second compound 3.16 µM, first compound 0.003 µM
  viability, T/C: 97%
[18]
  viability, T/C: 36.1%
[19]
  viability, T/C: 0.65%
[20]
  viability, T/C: 2.21%
[21]
  viability, T/C: 0.22%
Second compound 10 µM, first compound 0.000949 µM
  viability, T/C: 21.9%
Second compound 10 µM, first compound 0.003 µM
  viability, T/C: 24.2%
[22]
  viability, T/C: 12.7%
[23]
  viability, T/C: 0.35%
[24]
  viability, T/C: 1.63%
[25]
  viability, T/C: 1.52%
